Publication PMC4897634, “Design of an α-helical antimicrobial peptide with improved cell-selective and potent anti-biofilm activity” (Scientific Reports, 2016)
Where no end group is shown, it is not given here.

Columns and labels:
[1] = system: Acinetobacter baumannii; assay: MIC against biofilm-producing clinical isolate; format: cell-based; conditions: biofilm-producing strain, broth microdilution as for the other strains
Protocol: The antibacterial activities of the peptides against three Gram-negative bacteria and three Gram-positive bacteria strains were measured using a modified version of the Clinical Laboratory and Standards Institute (CLSI) broth microdilution method as described previously. Three Gram-negative bacteria, Escherichia coli (1.8732), Pseudomonas aeruginosa (1.2421), and Klebsiella pneumonia (1.1736), and three Gram-positive bacteria, Staphylococcus aureus (1.8721), Staphylococcus epidermidis (1.4260), and Bacillus subtilis (1.3376), were purchased from the China General Microbiological Culture Collection Centre (CGMCC). […] After incubation at 37 °C for 18 to 20 hours, the absorbance of each well was recorded using a multi-well microplate reader (SpectraMax M5; Molecular Devices, Sunnyvale, CA, USA) at 600 nm. […]
Biofilm attachment assays against Acinetobacter baumannii were performed using a previously described method with some modifications. […] The MICs of AMPs against A. baumannii were evaluated as described above. […] The wells were allowed to dry, and the crystal violet-stained well was re-solubilized with 200 μl of 95% ethanol and shaken for 10 min followed by measurement of the absorbance at 595 nm on a microplate reader (SpectraMax M5; Molecular Devices, Sunnyvale, CA, USA). […]

[2] = system: L929 mouse fibroblast cells; assay: Cytotoxicity, MTT assay; format: cell-based; conditions: 1 hour
Protocol: The toxicity of the peptides against L929 mouse fibroblast cells was assessed by a standard MTT assay. L929 mouse fibroblast cells from ATCC (Manassas, VA, USA) were maintained in our laboratory. L929 cells were cultured in RPMI 1640 supplemented with 10% (v/v) FBS, 2 mM L-glutamine, 100 U/ml penicillin and […] streptomycin and maintained in a humidified incubator with 5% CO2 at 37 °C. L929 cells (5 × 10^3cells/well) were seeded in 96-well plates (Corning Inc., Lowell, MA, USA) and incubated overnight. Diluted peptides were added to L929 cells and incubated for 1 hour. Then, 20 μl of MTT (5 mg/ml) solution was added and incubated for 4 hours. The medium was removed, and 150 μl of DMSO was added to each well to dissolve the formazan crystals. The absorbance was measured at 490 nm on a microplate reader (SpectraMax M5; Molecular Devices, Sunnyvale, CA, USA). Cell viabilities were calculated by using the equation (3): […]

[3] = system: Gram-negative bacteria; format: cell-based, E. coli, P. aeruginosa, K. pneumoniae; conditions: ratio of MHC to GM, Gram-negative bacteria
Protocol: (§1) The antimicrobial activities of the peptides, indicated by the minimum inhibitory concentrations (MIC), were determined against a range of Gram-negative (Table 3) and Gram-positive bacterial strains (Table 4). The geometric mean of MIC values (GM) from the three strains was calculated to provide an overall evaluation of antimicrobial activity.
(§2) The therapeutic index (TI) is defined as the ratio of the minimum haemolytic concentration (MHC) of peptides to the GM of peptides, and this value was used to evaluate cell selectivity of peptides towards the negatively charged region of bacterial cell membranes over the zwitterionic mammalian cell membranes.
(§3) The antibacterial activities of the peptides against three Gram-negative bacteria and three Gram-positive bacteria strains were measured using a modified version of the Clinical Laboratory and Standards Institute (CLSI) broth microdilution method as described previously. Three Gram-negative bacteria, Escherichia coli (1.8732), Pseudomonas aeruginosa (1.2421), and Klebsiella pneumonia (1.1736), and three Gram-positive bacteria, Staphylococcus aureus (1.8721), Staphylococcus epidermidis (1.4260), and Bacillus subtilis (1.3376), were purchased from the China General Microbiological Culture Collection Centre (CGMCC). Briefly, bacteria were grown in liquid LB medium (tryptone, 10 g/L, yeast extract, 5 g/L and NaCl, 10 g/L) at 37 °C to mid-log phase, and the bacteria were diluted to 1 × 10^6 colony-forming units (CFU)/ml. The peptides were serially diluted with phosphate-buffered saline (PBS), and 50 μl diluted peptides were added to 50 μl of the bacterial suspension in 96-well plate (Corning Inc., Lowell, MA, USA). After incubation at 37 °C for 18 to 20 hours, the absorbance of each well was recorded using a multi-well microplate reader (SpectraMax M5; Molecular Devices, Sunnyvale, CA, USA) at 600 nm. The lowest concentration at which the peptide inhibited complete growth of the bacteria was taken as the minimal inhibitory concentration (MIC).

[4] = system: Gram-positive bacteria; format: cell-based, S. aureus, S. epidermidis, B. subtilis; conditions: ratio of MHC to GM, Gram-positive bacteria
Protocol: as §1, §2, §3

[5] = system: Pseudomonas aeruginosa (1.2421); assay: Antimicrobial activity, broth microdilution MIC; format: cell-based; conditions: modified CLSI broth microdilution, LB medium, 1 × 10^6 CFU/ml, 37 °C, 18 to 20 hours, absorbance 600 nm
Protocol: as §3

[6] = system: Bacillus subtilis (1.3376); assay: Antimicrobial activity, broth microdilution MIC; format: cell-based; conditions: modified CLSI broth microdilution, LB medium, 1 × 10^6 CFU/ml, 37 °C, 18 to 20 hours, absorbance 600 nm
Protocol: as §3

[7] = system: Klebsiella pneumonia (1.1736); assay: Antimicrobial activity, broth microdilution MIC; format: cell-based; conditions: modified CLSI broth microdilution, LB medium, 1 × 10^6 CFU/ml, 37 °C, 18 to 20 hours, absorbance 600 nm
Protocol: as §3

[8] = system: Staphylococcus epidermidis (1.4260); assay: Antimicrobial activity, broth microdilution MIC; format: cell-based; conditions: modified CLSI broth microdilution, LB medium, 1 × 10^6 CFU/ml, 37 °C, 18 to 20 hours, absorbance 600 nm
Protocol: as §3

[9] = system: Escherichia coli (1.8732); assay: Antimicrobial activity, broth microdilution MIC; format: cell-based; conditions: modified CLSI broth microdilution, LB medium, 1 × 10^6 CFU/ml, 37 °C, 18 to 20 hours, absorbance 600 nm
Protocol: as §3

[10] = system: Staphylococcus aureus (1.8721); assay: Antimicrobial activity, broth microdilution MIC; format: cell-based; conditions: modified CLSI broth microdilution, LB medium, 1 × 10^6 CFU/ml, 37 °C, 18 to 20 hours, absorbance 600 nm
Protocol: as §3

[11] = system: human erythrocytes; assay: Haemolytic activity; format: cell-based; conditions: 37 °C, 30 min; for haemolysis rate: human erythrocytes, relative to 0.1% Triton X-100
Protocol: Haemolytic activity of the peptides was assayed by a standard procedure with slight modification. Fresh human erythrocytes were washed three times and resuspended at 1.25% haematocrit in PBS. Forty microlitres PBS-diluted peptide solution was added to a V-bottom 96-well plate (Corning Inc., Lowell, MA, USA), and 160 μl of erythrocytes was added. After incubation at 37 °C for 30 min, the samples were centrifuged, and the absorbance of the supernatant was measured at 450 nm using a multi-well microplate reader (SpectraMax M5; Molecular Devices, Sunnyvale, CA, USA) and compared with the 100% haemolysis caused by 0.1% Triton X-100. The percentage of haemolysis was calculated according to the equation (2): […]

Row | Substance | MIC Acinetobacter baumannii [1] [µM] | viability of treated L929 cells ([2]; 6.25 μM peptide) | TI, therapeutic index [3] | TI, therapeutic index [4] | MIC P. aeruginosa [5] [µM] | MIC B. subtilis [6] [µM] | MIC K. pneumoniae [7] [µM] | MIC S. epidermidis [8] [µM] | MIC E. coli [9] [µM] | MIC S. aureus [10] [µM] | haemolysis rate ([11]; 3.13 μM peptide) [%] | MHC, minimum haemolytic concentration ([11]; concentration causing 10% haemolysis of hRBC, 200 μM used when no haemolysis detectable at 100 μM) [µM] | viability of treated L929 cells ([2]; 50 μM peptide) [%] | haemolysis rate ([11]; 100 μM peptide) [%]
1 | AIGSILGALAKGLPTLISWIKNR-NH2 [AR-23, reference compound] | 12.5 | approximately 10% | 0.2 | 0.79 | 12.5 | 3.13 | 12.5 | 3.13 | 25 | 6.25 | 37.9 | 3.13 | – | –
2 | RIGSILGRLAKGLPTLKSWIKNR-NH2 [A(A1R, A8R, I17K)] | 12.5 | – | 16 | 10.08 | 12.5 | 12.5 | 12.5 | 6.25 | 12.5 | 100 | – | – | 31.4 | 4.4
